From the supplement of paper PMC10784567
± gives the standard deviation of the averaged measurements.

Compound: C=C1C[C@H]2C=Nc3cc(OCCCCCOc4cc5c(cc4OC)C(=O)N4CC(=C)C[C@H]4C=N5)c(OC)cc3C(=O)N2C1 [SG2057]
Experiment: absolute IC50 (cell viability, CellTiter-Glo); higher = less potent
Details: treatment time: 3 days
Method: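 Large cancer cell line panel screens in 384-well plates. Cells were treated for 3 days with a 9-point dose titration of the free PBD dimer SG2057; viability was read with CellTiter-Glo. Absolute IC50 came from a four-parameter Hill fit normalised to the median of vehicle (DMSO) wells. Several independent screens (projects) per cell line are averaged; values in µM, lowest-dose floor about 1.524e-5 µM.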

| Test System | absolute IC50 [pM] |
| --- | --- |
| HCC2885 | 801 |
| SJCRH30 | 422 |
| MCF 10A CDH1 -/- (Sigma) | 2530 |
| KPP14388 LN | 490 |
| HCC4019 | 4510 ± 2900 |
| NCI-H810 | 1420 |
| 51BLim 10 | 371 |
| 501A | 378 ± 250 |
| AU565 | 835 ± 350 |
| AM-38 | 4530 |
| KMS-12-PE | 433 |
| HCC44 | 762 ± 590 |
| MCF 10A | 3780 ± 2700 |
| 4498-16820 Mel-BR1 | 550 |
| HEC-265 | 555 |
| OV56 | 195 ± 300 |
| LoVo | 1520 ± 430 |
| COLO 320DM | 20200 |
| G59 | 803 ± 820 |
| JVM-2 | 374 ± 480 |
| MCF 10A AKT2 -/- (Sigma) | 2140 |
| NCI-N417 | 737 |
| SNU-484 | 327 ± 110 |
| HEC-251 | 1280 |
| HEL | 67 ± 7.1 |
| OAW28 | 5250 |

| Test System | absolute IC50 [pM] |
| --- | --- |
| B16-F10 Luciferase | 894 |
| CAL-120 | 2010 ± 2900 |
| A20 | < 15.2 |
| OVTOKO | 557 ± 550 |
| KMS-34 | 272 ± 270 |
| MX-1 | 2510 ± 2000 |
| SK-CO-1 | 201 ± 190 |
| U-2932 | 213 ± 230 |
| NB69 | 612 |
| KR7414 | 1450 |
| NCI-H1792 | 2240 |
| JC | 463 |
| 1624-17147 (Tumor B) | 1550 |
| COLO 679 | 435 ± 340 |
| HCC1428 | 6010 ± 310 |
| OVCAR-4 | 1330 ± 490 |
| NCI-H820 | 1480 |
| PAN 02 X1 | 839 |
| SNU-475 | 2560 ± 3800 |
| NCI-H920 | 9130 |
| NCI-H2126 | 3940 |
| HCC2302 | 8980 |
| 786-O | 1240 ± 1800 |
| JHH-7 | 1940 |
| NCI-H322T | 912 |
| COLO 792 | 3470 |

| Test System | absolute IC50 [pM] |
| --- | --- |
| CoCM-1 | 13500 |
| 1624-17095 (Tumor C) | 777 |
| HLF | 503 ± 720 |
| NUGC-4 | 443 |
| GP5d | 1930 ± 1500 |
| MES-SA | 135 ± 140 |
| PK-45H | 1200 ± 940 |
| TYK-nu | 113 ± 180 |
| HCC1010 | 134 ± 120 |
| NJG | 151 |
| HCC3418 | 21.8 |
| NCI-H196 | 2690 |
| KE-97 | 193 ± 110 |
| OE33 | 61.2 |
| DEOC-1 | 18900 |
| SW 403 | 3640 ± 1600 |
| PL-21 | 1380 ± 1200 |
| CI-1 | 104 ± 14 |
| NCI-H1975 | 2000 |
| ATRFLOX | 211 ± 410 |
| KYSE-410 | 579 |
| KALS-1 | 336 |
| GOTOP3 | 217 |
| UKE-1 | 18.9 ± 5.6 |
| NCI-H2803 | 3860 |
| HNT-34 | 76 ± 67 |
